# Measurements reported in patent publication US20220169643A1, “ESTROGEN RECEPTOR DEGRADING PROTACS” (AstraZeneca AB, priority 2019, published 2022).
# Molecular target: T1, Estrogen Receptor Alpha Ligand binding domain (ER alpha-LBD (GST)) (Homo sapiens, UniProt P03372)
# T1 construct: made in house
# T1 sequence (P03372 307-554): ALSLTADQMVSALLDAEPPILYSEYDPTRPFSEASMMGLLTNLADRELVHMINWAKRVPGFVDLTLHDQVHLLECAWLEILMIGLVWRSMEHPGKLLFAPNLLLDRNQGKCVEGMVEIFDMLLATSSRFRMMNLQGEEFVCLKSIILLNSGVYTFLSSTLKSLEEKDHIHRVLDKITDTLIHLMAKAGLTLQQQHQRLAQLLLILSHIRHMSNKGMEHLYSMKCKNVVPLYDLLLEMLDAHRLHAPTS
# Test: ERα Binding Assay (LanthaScreen TR-FRET competition)
# Settings: competitive displacement of Fluormone ES2 tracer from recombinant human ER alpha-LBD (residues 307-554), 4 hours at room temperature
# Description: The ability of compounds to bind to isolated Estrogen Receptor Alpha Ligand binding domain (ER alpha-LBD (GST)) was assessed in competition assays using a LanthaScreen™ Time-Resolved Fluorescence Resonance Energy Transfer (TR-FRET) detection end-point. For the LanthaScreen TR-FRET endpoint, a suitable fluorophore (Fluormone ES2, ThermoFisher, Product code P2645) and recombinant human Estrogen Receptor alpha ligand binding domain, residues 307-554 (expressed and purified in-house) were used to measure compound binding. The assay principle is that ER alpha-LBD (GST) is added to a fluorescent ligand to form a receptor/fluorophore complex. A terbium-labelled anti-GST antibody (Product code PV3551) is used to indirectly label the receptor by binding to its GST tag, and competitive binding is detected by a test compound's ability to displace the fluorescent ligand, resulting in a loss of TR-FRET signal between the Th-anti-GST antibody and the tracer. The assay was performed as follows with all reagent additions carried out using the Beckman Coulter BioRAPTR FRD microfluidic workstation: • 1. Acoustic dispense 120 nL of the test compound into a black low volume 384 well assay plates. • 2. Prepare 1×ER alpha-LBD/Tb-anti-GST Ab in ES2 screening buffer and incubate for 15 minutes. • 3. Dispense 6 μL of the 1×[…]/Th-anti-GST Ab reagent into each well of the assay plate followed by 6 μL of Fluorophore reagent into each well of the assay plate • 4. Cover the assay plate to protect the reagents from light and evaporation, and incubate at room temperature for 4 hours. • 5. Excite at 337 nm and measure the fluorescent emission signal of each well at 490 nm and 520 nm using the BMG PheraSTAR.
# Compounds were dosed directly from a compound source microplate containing serially diluted compound (4 wells containing 10 mM, […] and 10 nM final compound respectively) to an assay microplate using the Labcyte Echo 550. The Echo 550 is a liquid handler that uses acoustic technology to perform direct microplate-to-microplate transfers of DMSO compound solutions and the system can be programmed to transfer multiple small nL volumes of compound from the different source plate wells to give the desired serial dilution of compound in the assay which is then back-filled to normalise the DMSO concentration across the dilution range.
# In total 120 nL of compound plus DMSO were added to each well and compounds were tested in a 12-point concentration response format over a final compound concentration range of 10, 2.917, 1.042, 0.2083, 0.1, 0.0292, 0.0104, 0.002083, 0.001, 0.0002917, 0.0001042, and 0.00001 μM respectively. TR-FRET dose response data obtained with each compound was exported into a suitable software package (such as Origin or Genedata) to perform curve fitting analysis. Competitive ER alpha binding was expressed as an IC50 value. This was determined by calculation of the concentration of compound that was required to give a 50% reduction in tracer compound binding to ER alpha-LBD.
row,Compound,IC50 [nM]
1,"C[C@@H]1Cc2c([nH]c3ccccc23)[C@@H](c2cnc(N3CCC(CCCN4CCN(c5ccc6c(c5)CN(C5CCC(=O)NC5=O)C6=O)CC4)CC3)nc2)N1CC(F)(F)F (stereo partly drawn) [Example 34, 3-(5-{4-[3-(1-{5-[(1R,3R)-3-methyl-2-(2,2,2-trifluoroethyl)-2,3,4,9-tetrahydro-1H-beta-carbolin-1-yl]pyrimidin-2-yl}piperidin-4-yl)propyl]piperazin-1-yl}-1-oxo-1,3-dihydro-2H-isoindol-2-yl)piperidine-2,6-dione]",7.3
2,"C[C@@H]1Cc2c([nH]c3ccccc23)[C@@H](c2cnc(N3CCC(CCN4CCC5(CC4)CCN(c4ccc6c(c4)CN(C4CCC(=O)NC4=O)C6=O)CC5)CC3)nc2)N1CC(C)(C)F (stereo partly drawn) [Example 11, 3-(5-{9-[2-(1-{5-[(1R,3R)-2-(2-fluoro-2-methylpropyl)-3-methyl-2,3,4,9-tetrahydro-1H-beta-carbolin-1-yl]pyrimidin-2-yl}piperidin-4-yl)ethyl]-3,9-diazaspiro[5.5]undecan-3-yl}-1-oxo-1,3-dihydro-2H-isoindol-2-yl)piperidine-2,6-dione]",1.2
3,"COc1cc(N2CCN(CCC3CCN(c4ncc([C@@H]5c6[nH]c7ccccc7c6C[C@@H](C)N5CC(C)(C)F)cn4)CC3)CC2)cc2c1C(=O)N(C1CCC(=O)NC1=O)C2 (stereo partly drawn) [Example 12, 3-(5-{4-[2-(1-{5-[(1R,3R)-2-(2-fluoro-2-methylpropyl)-3-methyl-2,3,4,9-tetrahydro-1H-beta-carbolin-1-yl]pyrimidin-2-yl}piperidin-4-yl)ethyl]piperazin-1-yl}-7-methoxy-1-oxo-1,3-dihydro-2H-isoindol-2-yl)piperidine-2,6-dione]",1.5
4,"C[C@@H]1Cc2c([nH]c3ccccc23)[C@@H](c2cnc(N3CCC(OCCN4CCN(c5ccc6c(c5)CN(C5CCC(=O)NC5=O)C6=O)CC4)CC3)nc2)N1CC(C)(C)F (stereo partly drawn) [Example 4, 3-[5-[4-[2-[[1-[5-[(1R,3R)-2-(2-Fluoro-2-methyl-propyl)-3-methyl-1,3,4,9-tetrahydropyrido[3,4-b]indol-1-yl]pyrimidin-2-yl]-4-piperidyl]oxy]ethyl]piperazin-1-yl]-1-oxo-isoindolin-2-yl]piperidine-2,6-dione]",2.1
5,"C[C@@H]1Cc2c([nH]c3ccccc23)[C@@H](c2cnc(N3CCC(CCN4CCOC5(CC4)CCN(c4ccc6c(c4)CN(C4CCC(=O)NC4=O)C6=O)CC5)CC3)nc2)N1CC(C)(C)F (stereo partly drawn) [Example 20, 3-(5-{10-[2-(1-{5-[(1R,3R)-2-(2-fluoro-2-methylpropyl)-3-methyl-2,3,4,9-tetrahydro-1H-beta-carbolin-1-yl]pyrimidin-2-yl}piperidin-4-yl)ethyl]-7-oxa-3,10-diazaspiro[5.6]dodecan-3-yl}-1-oxo-1,3-dihydro-2H-isoindol-2-yl)piperidine-2,6-dione]",2
6,"C[C@@H]1Cc2c([nH]c3ccccc23)[C@@H](c2cnc(N3CC(CCN4CCN(c5ccc6c(c5)CN(C5CCC(=O)NC5=O)C6=O)CC4)C3)nc2)N1CC(C)(C)F (stereo partly drawn) [Example 37, 3-(5-{4-[2-(1-{5-[(1R,3R)-2-(2-fluoro-2-methylpropyl)-3-methyl-2,3,4,9-tetrahydro-1H-beta-carbolin-1-yl]pyrimidin-2-yl}azetidin-3-yl)ethyl]piperazin-1-yl}-1-oxo-1,3-dihydro-2H-isoindol-2-yl)piperidine-2,6-dione]",3.3
7,"C[C@@H]1Cc2c([nH]c3ccccc23)[C@@H](c2cnc(N3CCC4(CCN(CCC5CCN(c6ccc7c(c6)CN(C6CCC(=O)NC6=O)C7=O)CC5)CCO4)CC3)nc2)N1CC(C)(C)F (stereo partly drawn) [Example 17, 3-(5-{4-[2-(3-{5-[(1R,3R)-2-(2-fluoro-2-methylpropyl)-3-methyl-2,3,4,9-tetrahydro-1H-beta-carbolin-1-yl]pyrimidin-2-yl}-7-oxa-3,10-diazaspiro[5.6]dodecan-10-yl)ethyl]piperidin-1-yl}-1-oxo-1,3-dihydro-2H-isoindol-2-yl)piperidine-2,6-dione]",13.8
8,"C[C@@H]1Cc2c([nH]c3ccccc23)[C@@H](c2cnc(N3CCC4(CCN(CCC5CCN(c6ccc7c(c6)CN(C6CCC(=O)NC6=O)C7=O)CC5)CC4)CC3)nc2)N1CC(C)(C)F (stereo partly drawn) [Example 10, 3-(5-{4-[2-(9-{5-[(1R,3R)-2-(2-fluoro-2-methylpropyl)-3-methyl-2,3,4,9-tetrahydro-1H-beta-carbolin-1-yl]pyrimidin-2-yl}-3,9-diazaspiro[5.5]undecan-3-yl)ethyl]piperidin-1-yl}-1-oxo-1,3-dihydro-2H-isoindol-2-yl)piperidine-2,6-dione]",22.3
9,"C[C@@H]1Cc2c([nH]c3ccccc23)[C@@H](c2cnc(N3CCC(CN4CCN(c5ccc6c(c5)CN(C5CCC(=O)NC5=O)C6=O)CC4)CC3)nc2)N1CC(F)(F)F (stereo partly drawn) [Example 35, 3-(5-{4-[(1-{5-[(1R,3R)-3-methyl-2-(2,2,2-trifluoroethyl)-2,3,4,9-tetrahydro-1H-beta-carbolin-1-yl]pyrimidin-2-yl}piperidin-4-yl)methyl]piperazin-1-yl}-1-oxo-1,3-dihydro-2H-isoindol-2-yl)piperidine-2,6-dione]",6.9
10,"C[C@@H]1Cc2c([nH]c3ccccc23)[C@@H](c2c(F)cc(OCCCCCN3CCN(c4ccc5c(c4)CN(C4CCC(=O)NC4=O)C5=O)CC3)cc2F)N1CC(C)(C)F (stereo partly drawn) [Example 5, 3-[5-[4-[5-[3,5-Difluoro-4-[(1R,3R)-2-(2-fluoro-2-methyl-propyl)-3-methyl-1,3,4,9-tetrahydropyrido[3,4-b]indol-1-yl]phenoxy]pentyl]piperazin-1-yl]-1-oxo-isoindolin-2-yl]piperidine-2,6-dione]",3.7
11,"3-[5-(9-{2-[(1S,3r)-3-({5-[(1R,3R)-2-(2-fluoro-2-methylpropyl)-3-methyl-2,3,4,9-tetrahydro-1H-beta-carbolin-1-yl]pyrimidin-2-yl}oxy)cyclobutyl]ethyl}-3,9-diazaspiro[5.5]undecan-3-yl)-1-oxo-1,3-dihydro-2H-isoindol-2-yl]piperidine-2,6-dione [Example 23]",4.4
12,C[C@@H]1Cc2c([nH]c3ccccc23)[C@@H](c2cnc(N3CCC(CN4CCN(CC5CCN(c6ccc7c(c6)CN(C6CCC(=O)NC6=O)C7=O)CC5)CC4)CC3)nc2)N1CC(C)(C)F (stereo partly drawn) [Example 6],5.6
13,"C[C@@H]1Cc2c([nH]c3ccccc23)[C@@H](c2cnc(N3CCC(CN4CCC5(CC4)CCN(c4ccc6c(c4)CN(C4CCC(=O)NC4=O)C6=O)CC5)CC3)nc2)N1CC(C)(C)F (mixture of isomers) [Example 7, 3-(5-{9-[(1-{5-[(1R,3R)-2-(2-fluoro-2-methylpropyl)-3-methyl-2,3,4,9-tetrahydro-1H-beta-carbolin-1-yl]pyrimidin-2-yl}piperidin-4-yl)methyl]-3,9-diazaspiro[5.5]undecan-3-yl}-1-oxo-1,3-dihydro-2H-isoindol-2-yl)piperidine-2,6-dione]",4.7
14,"C[C@@H]1Cc2c([nH]c3ccccc23)[C@@H](c2cnc(OCCCCCN3CCN(c4ccc5c(c4)CN(C4CCC(=O)NC4=O)C5=O)CC3)nc2)N1CC(C)(C)F (stereo partly drawn) [Example 40, 3-(5-{4-[5-({5-[(1R,3R)-2-(2-fluoro-2-methylpropyl)-3-methyl-2,3,4,9-tetrahydro-1H-beta-carbolin-1-yl]pyrimidin-2-yl}oxy)pentyl]piperazin-1-yl}-1-oxo-1,3-dihydro-2H-isoindol-2-yl)piperidine-2,6-dione]",7
15,"C[C@@H]1Cc2c([nH]c3ccccc23)[C@@H](c2cnc(N3CCC4(CCN(CC5CCN(c6ccc7c(c6)CN(C6CCC(=O)NC6=O)C7=O)CC5)CCO4)CC3)nc2)N1CC(C)(C)F (stereo partly drawn) [Example 18, 3-(5-{4-[(3-{5-[(1R,3R)-2-(2-fluoro-2-methylpropyl)-3-methyl-2,3,4,9-tetrahydro-1H-beta-carbolin-1-yl]pyrimidin-2-yl}-7-oxa-3,10-diazaspiro[5.6]dodecan-10-yl)methyl]piperidin-1-yl}-1-oxo-1,3-dihydro-2H-isoindol-2-yl)piperidine-2,6-dione]",9.5
